In US9169241B2, “Quinolinyloxyphenylsulfonamides” (Max-Planck-Gesellschaft Zur Forderung der Wissenschaften …, priority 2009, dated 2015):
Where two headings read alike, the source gives them in different places.

Columns and labels:
indicated cell line = test: Wound healing migration assay (Table IV); type: cell-based; details: compounds at 12.5, 6.25, 3.125 μM, 48 h-72 h
In short: (§1)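 Compound exposure at 12.5, 6.25 and 3.125 μM, with DMSO control, on scratch-wounded monolayers (150000 cells/24 well, overnight). Wound closure imaged by microscopy, fixed with crystal violet after 48 h or 72 h depending on cell line; IC50 is the concentration giving 50% wound size between t0 and t48/t72.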

A172 [1] = test: Matrigel outgrowth assay/branching assay; type: cell-based; details: Homo sapiens, A 172, Table Vb, read-out: Total branching inhibition in Matrigel A172
In short: (§2)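 Invasive outgrowth into a 3 mg/ml Matrigel gel is judged from images taken after 48, 72 and 96 h of exposure to 3.125, 1.56 or 0.78 μM compound, with DMSO as control. Positive means total inhibition of branching.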

SF126 [2] = test: Matrigel outgrowth assay/branching assay; type: cell-based; details: Homo sapiens, SF-126, Table Vb, read-out: Total branching inhibition in Matrigel SF126
In short: as §2

Hs578T [3] = test: Matrigel outgrowth assay/branching assay; type: cell-based; details: Homo sapiens, Hs-578T; HS578T cell line; Table Ib; read-out: Total branching inhibition in Matrigel HS578T
In short: as §2

U118 [4] = test: Matrigel outgrowth assay/branching assay; type: cell-based; details: Table Vb, read-out: Total branching inhibition in Matrigel U118
In short: as §2

Hs578T [5] = test: Wound healing migration assay; type: cell-based; details: Homo sapiens, Hs-578T; HS578T cell line; Table Ib
In short: as §1

A172 [6] = test: Cell vitality assay (ATP assay, CellTiter-Glo); type: cell-based; details: Homo sapiens, A 172; A172, 72 h; Table IIa; read-out: IC50 ATP-Assay after 72 h A172
In short: (§3)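 ATP-based luminescence (CellTiter-Glo) after 72 h exposure of 1000 cells/well to seven compound concentrations from 0.195 to 12.5 μM. IC50 defined as concentration reducing ATP to 50% of DMSO control.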

SF126 [7] = test: Cell vitality assay (ATP assay, CellTiter-Glo); type: cell-based; details: Homo sapiens, SF-126; SF126, 72 h; Table IIa; read-out: IC50 ATP-Assay after 72 h SF126
In short: as §3

Hs578T [8] = test: Cell vitality assay (ATP assay, CellTiter-Glo); type: cell-based; details: Homo sapiens, Hs-578T; HS578T cell line, 72 h; Table Ib; read-out: IC50 ATP-Assay HS578T after 72 h
In short: as §3

U118 [9] = test: Cell vitality assay (ATP assay, CellTiter-Glo); type: cell-based; details: U118, 72 h; Table IIa; read-out: IC50 ATP-Assay after 72 h U118
In short: as §3

SF126 [10] = test: Apoptosis assay (Cellomics, nucleus condensation); type: cell-based; details: Homo sapiens, SF-126, Table III, read-out: Apoptosis induction in SF126
In short: (§4)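 Readout: per-nucleus Hoechst 33342 fluorescence intensity and its population variation, plus number of detected cells, by automated CCD imaging. Live cells, 5000/well; compound 0.39–12.5 μM (twofold series) vs DMSO, read at 24 h and 48 h.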

Hs578T [11] = test: Apoptosis assay (Cellomics, nucleus condensation); type: cell-based; details: Homo sapiens, Hs-578T, Table III, read-out: Apoptosis induction in Hs578T
In short: as §4

C8161 = test: Apoptosis assay (Cellomics, nucleus condensation); type: cell-based; details: Homo sapiens, Table III, read-out: Apoptosis induction in C8161
In short: as §4

SF763 = test: Apoptosis assay (Cellomics, nucleus condensation); type: cell-based; details: Table III, read-out: Apoptosis induction in SF763
In short: as §4

U118 [12] = test: Apoptosis assay (Cellomics, nucleus condensation); type: cell-based; details: Table III, read-out: Apoptosis induction in U118
In short: as §4

U138 = test: Apoptosis assay (Cellomics, nucleus condensation); type: cell-based; details: Table III, read-out: Apoptosis induction in U138
In short: as §4

viable cells in culture = test: Cell viability assay at 10 μM (CellTiter-Glo, Table VII); type: cell-based; details: compound 10 μM, 72 h;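 further: graded A 0-20%; B 21-40%; C 41-60%; D over 60% viable cells relative to DMSO control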
In short: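 Cells were seeded at 1000 cells/well in 96-well plates in 100 μl culture medium and incubated for 72 h with 10 μM compound or a DMSO control. ATP content, which reflects metabolically active and therefore viable cells, was then determined by CellTiter-Glo luminescence (Promega) per the manufacturer's instructions and expressed relative to the DMSO control.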

cells = test: Boyden chamber migration assay (Table VI); type: cell-based; details: Homo sapiens, Hs-578T, 16 h, Hs578T cells; 16 h migration
In short: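 Migration read-out is a count of fixed cells on the underside of an […] insert membrane after 16 h. Chemoattractant was medium with 10% FCS in the lower chamber; 20000 cells started in serum-free medium with 0.1% BSA above, and those left on top were removed by swab.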

tumor cell = test: Matrigel outgrowth assay/branching assay (Table Va); type: cell-based
In short: as §2

[13] = Homo sapiens, A 172, A172 cells, read-out: IC50 Wound healing Assay A172
[14] = Homo sapiens, SF-126, SF126 cells, read-out: IC50 Wound healing Assay SF126
[15] = U118 cells, read-out: IC50 Wound healing Assay U118
[16] = Homo sapiens, C8161 cells, read-out: IC50 Wound healing Assay C8161
[17] = Homo sapiens, HCT-116, HCT116 def, read-out: percentage (%) of viable cells HCT 116def
[18] = Homo sapiens, HCT-116, HCT116 wt, read-out: percentage (%) of viable cells HCT 116wt
[19] = Homo sapiens, HT-29, HT29, read-out: percentage (%) of viable cells HT29
[20] = Homo sapiens, NCI-H358, H358, read-out: percentage (%) of viable cells H358
[21] = Homo sapiens, NCI-H1650, H1650, read-out: percentage (%) of viable cells H1650
[22] = Homo sapiens, NCI-H1666, H1666, read-out: percentage (%) of viable cells H1666
[23] = Homo sapiens, NCI-H1975, H1975, read-out: percentage (%) of viable cells H1975
[24] = Homo sapiens, NCI-H1993, H1993, read-out: percentage (%) of viable cells H1993
[25] = Homo sapiens, A549, read-out: percentage (%) of viable cells A549
[26] = Homo sapiens, HCC827, read-out: percentage (%) of viable cells HCC827
[27] = Homo sapiens, SW480, read-out: percentage (%) of viable cells SW480
[28] = RKO, read-out: percentage (%) of viable cells RKO
[29] = Homo sapiens, C8161 cells, read-out: Total branching inhibition in Matrigel C8161
[30] = Homo sapiens, Hs-578T, Hs578T cells, read-out: Total branching inhibition in Matrigel Hs578T
[31] = U118 cells, read-out: Total branching inhibition in Matrigel U118
[32] = U138 cells, read-out: Total branching inhibition in Matrigel U138

Row | Structure (SMILES) | IC50 (indicated cell line; [13]) [µM] | IC50 (indicated cell line; [14]) [µM] | IC50 (indicated cell line; [15]) [µM] | IC100 (A172 [1]) [µM] | IC100 (SF126 [2]) [µM] | IC50 (Hs578T [3]) [µM] | IC100 (U118 [4]) [µM] | melting point [°C] | IC50 (Hs578T [5]) [µM] | IC50 (A172 [6]) [µM] | IC50 (SF126 [7]) [µM] | IC50 (Hs578T [8]) [µM] | IC50 (U118 [9]) [µM] | IC50 (indicated cell line; [16]) [µM] | IC50 (SF126 [10]) [µM] | IC50 (Hs578T [11]) [µM] | IC50 (C8161) [µM] | IC50 (SF763) [µM] | IC50 (U118 [12]) [µM] | IC50 (U138) [µM] | further results
1 | COc1cc2c(Oc3ccc(NS(=O)(=O)c4ccccc4C(F)(F)F)cc3F)ccnc2cc1OCCCN1CCCCC1 [Example 4, N-{3-Fluoro-4-[6-methoxy-7-(3-piperidin-1-yl-propoxy)-quinolin-4-yloxy]-phenyl}-2-trifluoromethyl-benzenesulfonamide] | ≤ 12.5 | ≤ 12.5 | ≤ 12.5 | > 12.5 | ≤ 12.5 | ≤ 10 | ≤ 12.5 | 173 to 175 | ≤ 12.5 | ≤ 12.5 | ≤ 12.5 | ≤ 12.5 | ≤ 12.5 | – | – | – | – | – | – | – | –
2 | COc1cc2c(Oc3ccc(NS(=O)(=O)c4cc(Cl)cc(Cl)c4OC)cc3F)ccnc2cc1OCCCN1CCCC(C)C1 (centres unmarked) [Example 75, 3,5-Dichloro-N-(3-fluoro-4-{6-methoxy-7-[3-(3-methyl-piperidin-1-yl)-propoxy]-quinolin-4-yloxy}-phenyl)-2-methoxy-benzenesulfonamide] | – | – | – | – | – | ≤ 10 | – | 145 to 146 | – | – | – | – | – | 12.5 to 50 | ≤ 12.5 | ≤ 12.5 | ≤ 12.5 | ≤ 12.5 | ≤ 12.5 | ≤ 12.5 | viability at 10 µM (viable cells in culture; [17]): 21 to 40%; viability at 10 µM (viable cells in culture; [18]): 21 to 40%; viability at 10 µM (viable cells in culture; [19]): 0 to 20%; viability at 10 µM (viable cells in culture; [20]): 0 to 20%; viability at 10 µM (viable cells in culture; [21]): 21 to 40%; viability at 10 µM (viable cells in culture; [22]): 41 to 60%; viability at 10 µM (viable cells in culture; [23]): 0 to 20%; viability at 10 µM (viable cells in culture; [24]): 21 to 40%; viability at 10 µM (viable cells in culture; [25]): > 60%; viability at 10 µM (viable cells in culture; [26]): > 60%; viability at 10 µM (viable cells in culture; [27]): 0 to 20%; viability at 10 µM (viable cells in culture; [28]): 0 to 20%; IC50 (cells): ≤ 5 µM; IC50 (tumor cell; [29]): ≤ 5 µM; IC50 (tumor cell; [30]): ≤ 5 µM; IC50 (tumor cell; [31]): ≤ 5 µM; IC50 (tumor cell; [32]): 5 to 50 µM
3 | COc1cc2c(Oc3ccc(NS(=O)(=O)c4cc(F)ccc4F)cc3F)ccnc2cc1OCCCCN1CCOCC1 [Example 83, 2,5-Difluoro-N-{3-fluoro-4-[6-methoxy-7-(4-morpholin-4-yl-butoxy)-quinolin-4-yloxy]-phenyl}-benzenesulfonamide] | – | – | – | – | – | ≤ 10 | – | 156 to 158 | – | – | – | – | – | ≤ 12.5 | ≤ 12.5 | ≤ 12.5 | ≤ 12.5 | ≤ 12.5 | ≤ 12.5 | ≤ 12.5 | IC50 (indicated cell line; SF763 cells, read-out: IC50 Wound healing Assay SF763): ≤ 12.5 µM; viability at 10 µM (viable cells in culture; [17]): 21 to 40%; viability at 10 µM (viable cells in culture; [18]): 0 to 20%; viability at 10 µM (viable cells in culture; [19]): 0 to 20%; viability at 10 µM (viable cells in culture; [20]): 0 to 20%; viability at 10 µM (viable cells in culture; [21]): 21 to 40%; viability at 10 µM (viable cells in culture; [22]): 21 to 40%; viability at 10 µM (viable cells in culture; [23]): 41 to 60%; viability at 10 µM (viable cells in culture; [24]): 0 to 20%; viability at 10 µM (viable cells in culture; [25]): 21 to 40%; viability at 10 µM (viable cells in culture; [26]): 0 to 20%; viability at 10 µM (viable cells in culture; [27]): 21 to 40%; viability at 10 µM (viable cells in culture; [28]): > 60%; IC50 (cells): ≤ 5 µM; IC50 (tumor cell; [29]): ≤ 5 µM; IC50 (tumor cell; [30]): ≤ 5 µM; IC50 (tumor cell; [31]): ≤ 5 µM; IC50 (tumor cell; [32]): ≤ 5 µM
4 | COc1cc2c(Oc3ccc(NS(=O)(=O)c4cc(F)ccc4F)cc3F)ccnc2cc1OCCCN1CCCCC1C (centres unmarked) [Example 151, 2,5-Difluoro-N-(3-fluoro-4-{6-methoxy-7-[3-(2-methyl-piperidin-1-yl)-propoxy]-quinolin-4-yloxy}-phenyl)-benzenesulfonamide] | ≤ 12.5 | ≤ 12.5 | ≤ 12.5 | ≤ 12.5 | ≤ 12.5 | ≤ 10 | ≤ 12.5 | 120 to 122 | ≤ 12.5 | ≤ 12.5 | ≤ 12.5 | ≤ 12.5 | ≤ 12.5 | – | – | – | – | – | – | – | –
5 | COc1cc2c(Oc3ccc(NS(=O)(=O)c4cc(F)ccc4F)cc3F)ccnc2cc1OCCCN(C)C [Example 177, N-{4-[7-(3-Dimethylamino-propoxy)-6-methoxy-quinolin-4-yloxy]-3-fluoro-phenyl}-2,5-difluoro-benzenesulfonamide] | ≤ 12.5 | ≤ 12.5 | ≤ 12.5 | ≤ 12.5 | ≤ 12.5 | ≤ 10 | ≤ 12.5 | 108 to 110 | ≤ 12.5 | ≤ 12.5 | ≤ 12.5 | ≤ 12.5 | ≤ 12.5 | – | – | – | – | – | – | – | –
